The text below walks through data of PMC3639044 (Molecular Biology of the Cell, 2013).

The assay concerns the target T1, TbPLK^as (analogue-sensitive Trypanosoma brucei Polo-like kinase) (Trypanosoma brucei, UniProt Q57VI0, C57V/L118G).
T1 sequence (Q57VI0 1-768 C57V/L118G): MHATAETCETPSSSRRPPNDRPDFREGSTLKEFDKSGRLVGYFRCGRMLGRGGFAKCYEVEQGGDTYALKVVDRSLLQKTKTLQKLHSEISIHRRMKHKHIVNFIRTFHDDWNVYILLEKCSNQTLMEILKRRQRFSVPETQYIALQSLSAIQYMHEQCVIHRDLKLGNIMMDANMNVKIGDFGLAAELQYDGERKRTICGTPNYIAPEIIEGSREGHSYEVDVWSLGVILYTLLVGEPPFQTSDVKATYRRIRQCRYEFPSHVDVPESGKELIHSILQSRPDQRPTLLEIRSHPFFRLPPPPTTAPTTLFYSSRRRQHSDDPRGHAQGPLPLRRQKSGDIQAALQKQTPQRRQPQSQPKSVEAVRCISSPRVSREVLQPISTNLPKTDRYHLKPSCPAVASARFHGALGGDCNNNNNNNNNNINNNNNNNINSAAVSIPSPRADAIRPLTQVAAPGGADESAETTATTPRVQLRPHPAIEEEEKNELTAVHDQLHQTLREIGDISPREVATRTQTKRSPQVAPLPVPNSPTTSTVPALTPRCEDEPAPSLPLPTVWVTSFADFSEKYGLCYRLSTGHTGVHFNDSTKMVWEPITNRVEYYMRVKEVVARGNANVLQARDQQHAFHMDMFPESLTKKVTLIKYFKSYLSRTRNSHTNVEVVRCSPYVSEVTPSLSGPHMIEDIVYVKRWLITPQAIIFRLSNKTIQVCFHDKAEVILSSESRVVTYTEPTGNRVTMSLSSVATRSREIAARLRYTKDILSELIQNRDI
In kind it is biochemical.

For the compound `Cc1cccc(Cc2nn(C(C)(C)C)c3ncnc(N)c23)c1` [3MB-PP1], the IC50 (usually the concentration that inhibits the measured activity by half) is roughly 0.25 µM.
